Data on six molecules can be found in US11304919B2, “Utilization of cilastatin in inhibiting renal disorder” (NIIGATA UNIVERSITY, priority 2018, dated 2022).

The test system of data set [1] is megalin. The conditions noted are these: mouse, in vivo.
Source text: (§1) EPMA is an electron microprobe (EMP) instrument that analyzes the constituent elements of a substance of interest by irradiating electron beams onto the substance and measuring the wavelengths and intensities of characteristic X-rays unique to the different elements, which are generated by the electron beams. […] The behaviors of contrast media per se can be verified by analyzing iodine content distribution.
(§2) In order to use right kidneys for analysis, 3 mm-thick sections containing a kidney pedicle portion were prepared, embedded in OCT compound, freeze-fixed with liquid nitrogen, and stored at −80° C.
(§3) Next, the stored sections were sliced at a thickness of 4 μm using a cryostat (CM1850, Leica Biosystems), and the obtained slices were attached onto carbon-coated grids and freeze-dried overnight.
(§4) 378 μm^2 cortical areas in the prepared tissue slices were analyzed by EPMA (EPMA 1610, Shimadzu Corporation, Kyoto, Japan) to map iodine present in the structures of the contrast media.
Data set [2] concerns the target T1, megalin (Mus musculus, UniProt A2ARV4). The conditions noted are these: in vivo.
Source text: as §1, §2, §3, §4
Data set [3] deals with T1, megalin.
Source text: In this example, it was verified, using an electron probe microanalyzer (EPMA), whether megalin-dependent internalization of contrast media (iodine) into murine renal proximal tubular epithelial cells was inhibited by treatment with cilastatin.
C57BL/6J mice were divided into the following groups and administered with the following agents from the tail vein.
Therefore, by calculating a ratio of X-ray intensity between iodine (I) and nitrogen (N) (I/N) in a specified area of thin-film biological samples, iodine (I) levels in different samples can be relatively quantified and compared. X-ray count ratio=(X-ray count of iodine/unit area)/(X-ray count of nitrogen/(unit area))
Based on this principle, iodine levels in a specified area were relatively quantified and compared.
Further, 1980 μm^2 regions containing cortex portions were analyzed, and seven 500 μm^2 areas were chosen from the cortex portions so as not to overlap with each other. An average was calculated of the I/N X-ray ratios in the seven areas, and regarded as an I/N X-ray ratio for one individual. Those I/N X-ray ratios for six individuals in each of the a) and b) groups were quantified and compared.
Data set [4] deals with C57BL/6J mice. In words: Inhibition of contrast-induced renal injuries in murine contrast nephropathy model (Example 2). The format is in vivo, mouse. The conditions noted are these: 200 μL iomeprol + 400 mg/kg cilastatin. On the procedure:
In order to confirm the ability of cilastatin to inhibit renal injuries, C57BL/6J mice were simultaneously administered with an iodinated contrast medium and cilastatin, and the results were analyzed.
Left kidneys were extracted from the C57BL/6J mice, and 14 days later, right kidney pedicles were ligated for 30 minutes. Thereafter, reperfusion was carried out. […]
a) Contrast medium+cilastatin-treated group: 200 μL of iomeprol (CM)+400 mg/kg cilastatin (CS) (100 LL) b) Contrast medium+normal saline-treated group: 200 μL of iomeprol (CM)+100 μL of NS For each of the groups, after 48 hours from the medication, blood and urine samples were collected, and serum Cr, MN and cystatin C levels, and urinary Cr, NAG and KIM-1 levels were measured. Further, right kidneys were extracted and histologically evaluated by immunostaining with KIM-1 and staining with PAS. […] Serum cystatin C and urinary KIM-1 measurements were contracted to Oriental Yeast Co., Ltd.
0.5±: Clear but weak granular staining present focally along the luminal surface of non-atrophic proximal tubules 1+: Clear but weak granular staining completely surrounding the luminal surface of non-atrophic proximal tubules 2+: Moderately intense granular staining completely surrounding the luminal surface of non-atrophic proximal tubules and extending into intercellular junctions 3+: Strong large granular staining completely surrounding the luminal surface of non-atrophic proximal tubules and extending into intercellular junctions […]
Individuals meeting these criteria were regarded as individuals with onset of contrast nephropathy.

The target in data set [5] is megalin (Rattus norvegicus, UniProt P98158). The conditions noted are these: 1 mg cilastatin injected in advance; 1.5 μg protein of interest; FIG. 27.
Procedure: According to the method of Orlando, et al, megalin protein purified from Sprague-Dawley (SD) rat kidneys was immobilized on quartz crystals. To be specific, with the use of an immobilization kit for AFFNIX® (Initium Inc.) and according to the recommended protocol for the kit, a megalin protein solution was prepared in Buffer A as provided with the kit to a concentration of 62.5 μg/mL, and placed and immobilized onto quartz crystals mounted in a holder.
More specifically, the protein of interest was injected in aliquots of the megalin protein-immobilized quartz crystals in 200 μL of buffer to measure frequency. The same measurement was done on quartz crystals, as a control, on which the same amount of bovine serum albumin (BAS) was solid phased instead of megalin. Thus, the specific binding ability of the protein of interest to megalin was analyzed.
Further, aliquots of megalin protein-immobilized quartz crystals in a buffer in which 1 mg of cilastatin was injected in advance were mounted in the measurement instrument, and the frequency was confirmed to be stable, and then, 1.5 μg of the protein of interest was injected to measure frequency over time, whereby the antagonizing activity of cilastatin against the binding of the protein of interest to megalin was analyzed. The same experiment was performed for the control group.
Data set [6] relates to protein (carrier) used in Reference Example 5. The conditions noted are these: 0-50 mM cilastatin; 10 mM iomeprol, ioversol, iodixanol, iopromide or iohexol solid-phased beads; FIGS. 22-26.
Procedure: Different solutions, as mentioned below, were prepared using 100 mM KCL buffer (as mentioned in Reference Example 4) and the protein used in Reference Example 5, and were reacted at 4° C. for 2 hours.
a) Solution containing 25 ng/μL of the protein of interest and 0 mM of the contrast medium
b) Solution containing 25 ng/μL of the protein of interest and 10 mM of the contrast medium
c) Solution containing 25 ng/μL of the protein of interest and 25 mM of the contrast medium
d) Solution containing 25 ng/μL of the protein of interest and 50 mM of the contrast medium
Next, the above-prepared solutions were each added to 5 mg of the 0 mM or 10 mM contrast solid-phased beads dispersed and washed by the procedure described in Reference Example 4, and were reacted at 4° C. for 4 hours. The solution/beads combinations adopted were as mentioned below.
Then, the different mixtures were treated by following the procedure described in Reference Example 4, and heat-eluted samples were prepared from the different reaction solutions.
Different solutions, as mentioned below, were prepared using 100 mM KCL buffer (as mentioned in Reference Example 4), and were reacted at 4° C. for 2 hours.
a′) Solution containing 25 ng/μL of the protein of interest and 0 mM of cilastatin
b′) Solution containing 25 ng/μL of the protein of interest and 10 mM of cilastatin […]

T1 sequence (A2ARV4 26-4660): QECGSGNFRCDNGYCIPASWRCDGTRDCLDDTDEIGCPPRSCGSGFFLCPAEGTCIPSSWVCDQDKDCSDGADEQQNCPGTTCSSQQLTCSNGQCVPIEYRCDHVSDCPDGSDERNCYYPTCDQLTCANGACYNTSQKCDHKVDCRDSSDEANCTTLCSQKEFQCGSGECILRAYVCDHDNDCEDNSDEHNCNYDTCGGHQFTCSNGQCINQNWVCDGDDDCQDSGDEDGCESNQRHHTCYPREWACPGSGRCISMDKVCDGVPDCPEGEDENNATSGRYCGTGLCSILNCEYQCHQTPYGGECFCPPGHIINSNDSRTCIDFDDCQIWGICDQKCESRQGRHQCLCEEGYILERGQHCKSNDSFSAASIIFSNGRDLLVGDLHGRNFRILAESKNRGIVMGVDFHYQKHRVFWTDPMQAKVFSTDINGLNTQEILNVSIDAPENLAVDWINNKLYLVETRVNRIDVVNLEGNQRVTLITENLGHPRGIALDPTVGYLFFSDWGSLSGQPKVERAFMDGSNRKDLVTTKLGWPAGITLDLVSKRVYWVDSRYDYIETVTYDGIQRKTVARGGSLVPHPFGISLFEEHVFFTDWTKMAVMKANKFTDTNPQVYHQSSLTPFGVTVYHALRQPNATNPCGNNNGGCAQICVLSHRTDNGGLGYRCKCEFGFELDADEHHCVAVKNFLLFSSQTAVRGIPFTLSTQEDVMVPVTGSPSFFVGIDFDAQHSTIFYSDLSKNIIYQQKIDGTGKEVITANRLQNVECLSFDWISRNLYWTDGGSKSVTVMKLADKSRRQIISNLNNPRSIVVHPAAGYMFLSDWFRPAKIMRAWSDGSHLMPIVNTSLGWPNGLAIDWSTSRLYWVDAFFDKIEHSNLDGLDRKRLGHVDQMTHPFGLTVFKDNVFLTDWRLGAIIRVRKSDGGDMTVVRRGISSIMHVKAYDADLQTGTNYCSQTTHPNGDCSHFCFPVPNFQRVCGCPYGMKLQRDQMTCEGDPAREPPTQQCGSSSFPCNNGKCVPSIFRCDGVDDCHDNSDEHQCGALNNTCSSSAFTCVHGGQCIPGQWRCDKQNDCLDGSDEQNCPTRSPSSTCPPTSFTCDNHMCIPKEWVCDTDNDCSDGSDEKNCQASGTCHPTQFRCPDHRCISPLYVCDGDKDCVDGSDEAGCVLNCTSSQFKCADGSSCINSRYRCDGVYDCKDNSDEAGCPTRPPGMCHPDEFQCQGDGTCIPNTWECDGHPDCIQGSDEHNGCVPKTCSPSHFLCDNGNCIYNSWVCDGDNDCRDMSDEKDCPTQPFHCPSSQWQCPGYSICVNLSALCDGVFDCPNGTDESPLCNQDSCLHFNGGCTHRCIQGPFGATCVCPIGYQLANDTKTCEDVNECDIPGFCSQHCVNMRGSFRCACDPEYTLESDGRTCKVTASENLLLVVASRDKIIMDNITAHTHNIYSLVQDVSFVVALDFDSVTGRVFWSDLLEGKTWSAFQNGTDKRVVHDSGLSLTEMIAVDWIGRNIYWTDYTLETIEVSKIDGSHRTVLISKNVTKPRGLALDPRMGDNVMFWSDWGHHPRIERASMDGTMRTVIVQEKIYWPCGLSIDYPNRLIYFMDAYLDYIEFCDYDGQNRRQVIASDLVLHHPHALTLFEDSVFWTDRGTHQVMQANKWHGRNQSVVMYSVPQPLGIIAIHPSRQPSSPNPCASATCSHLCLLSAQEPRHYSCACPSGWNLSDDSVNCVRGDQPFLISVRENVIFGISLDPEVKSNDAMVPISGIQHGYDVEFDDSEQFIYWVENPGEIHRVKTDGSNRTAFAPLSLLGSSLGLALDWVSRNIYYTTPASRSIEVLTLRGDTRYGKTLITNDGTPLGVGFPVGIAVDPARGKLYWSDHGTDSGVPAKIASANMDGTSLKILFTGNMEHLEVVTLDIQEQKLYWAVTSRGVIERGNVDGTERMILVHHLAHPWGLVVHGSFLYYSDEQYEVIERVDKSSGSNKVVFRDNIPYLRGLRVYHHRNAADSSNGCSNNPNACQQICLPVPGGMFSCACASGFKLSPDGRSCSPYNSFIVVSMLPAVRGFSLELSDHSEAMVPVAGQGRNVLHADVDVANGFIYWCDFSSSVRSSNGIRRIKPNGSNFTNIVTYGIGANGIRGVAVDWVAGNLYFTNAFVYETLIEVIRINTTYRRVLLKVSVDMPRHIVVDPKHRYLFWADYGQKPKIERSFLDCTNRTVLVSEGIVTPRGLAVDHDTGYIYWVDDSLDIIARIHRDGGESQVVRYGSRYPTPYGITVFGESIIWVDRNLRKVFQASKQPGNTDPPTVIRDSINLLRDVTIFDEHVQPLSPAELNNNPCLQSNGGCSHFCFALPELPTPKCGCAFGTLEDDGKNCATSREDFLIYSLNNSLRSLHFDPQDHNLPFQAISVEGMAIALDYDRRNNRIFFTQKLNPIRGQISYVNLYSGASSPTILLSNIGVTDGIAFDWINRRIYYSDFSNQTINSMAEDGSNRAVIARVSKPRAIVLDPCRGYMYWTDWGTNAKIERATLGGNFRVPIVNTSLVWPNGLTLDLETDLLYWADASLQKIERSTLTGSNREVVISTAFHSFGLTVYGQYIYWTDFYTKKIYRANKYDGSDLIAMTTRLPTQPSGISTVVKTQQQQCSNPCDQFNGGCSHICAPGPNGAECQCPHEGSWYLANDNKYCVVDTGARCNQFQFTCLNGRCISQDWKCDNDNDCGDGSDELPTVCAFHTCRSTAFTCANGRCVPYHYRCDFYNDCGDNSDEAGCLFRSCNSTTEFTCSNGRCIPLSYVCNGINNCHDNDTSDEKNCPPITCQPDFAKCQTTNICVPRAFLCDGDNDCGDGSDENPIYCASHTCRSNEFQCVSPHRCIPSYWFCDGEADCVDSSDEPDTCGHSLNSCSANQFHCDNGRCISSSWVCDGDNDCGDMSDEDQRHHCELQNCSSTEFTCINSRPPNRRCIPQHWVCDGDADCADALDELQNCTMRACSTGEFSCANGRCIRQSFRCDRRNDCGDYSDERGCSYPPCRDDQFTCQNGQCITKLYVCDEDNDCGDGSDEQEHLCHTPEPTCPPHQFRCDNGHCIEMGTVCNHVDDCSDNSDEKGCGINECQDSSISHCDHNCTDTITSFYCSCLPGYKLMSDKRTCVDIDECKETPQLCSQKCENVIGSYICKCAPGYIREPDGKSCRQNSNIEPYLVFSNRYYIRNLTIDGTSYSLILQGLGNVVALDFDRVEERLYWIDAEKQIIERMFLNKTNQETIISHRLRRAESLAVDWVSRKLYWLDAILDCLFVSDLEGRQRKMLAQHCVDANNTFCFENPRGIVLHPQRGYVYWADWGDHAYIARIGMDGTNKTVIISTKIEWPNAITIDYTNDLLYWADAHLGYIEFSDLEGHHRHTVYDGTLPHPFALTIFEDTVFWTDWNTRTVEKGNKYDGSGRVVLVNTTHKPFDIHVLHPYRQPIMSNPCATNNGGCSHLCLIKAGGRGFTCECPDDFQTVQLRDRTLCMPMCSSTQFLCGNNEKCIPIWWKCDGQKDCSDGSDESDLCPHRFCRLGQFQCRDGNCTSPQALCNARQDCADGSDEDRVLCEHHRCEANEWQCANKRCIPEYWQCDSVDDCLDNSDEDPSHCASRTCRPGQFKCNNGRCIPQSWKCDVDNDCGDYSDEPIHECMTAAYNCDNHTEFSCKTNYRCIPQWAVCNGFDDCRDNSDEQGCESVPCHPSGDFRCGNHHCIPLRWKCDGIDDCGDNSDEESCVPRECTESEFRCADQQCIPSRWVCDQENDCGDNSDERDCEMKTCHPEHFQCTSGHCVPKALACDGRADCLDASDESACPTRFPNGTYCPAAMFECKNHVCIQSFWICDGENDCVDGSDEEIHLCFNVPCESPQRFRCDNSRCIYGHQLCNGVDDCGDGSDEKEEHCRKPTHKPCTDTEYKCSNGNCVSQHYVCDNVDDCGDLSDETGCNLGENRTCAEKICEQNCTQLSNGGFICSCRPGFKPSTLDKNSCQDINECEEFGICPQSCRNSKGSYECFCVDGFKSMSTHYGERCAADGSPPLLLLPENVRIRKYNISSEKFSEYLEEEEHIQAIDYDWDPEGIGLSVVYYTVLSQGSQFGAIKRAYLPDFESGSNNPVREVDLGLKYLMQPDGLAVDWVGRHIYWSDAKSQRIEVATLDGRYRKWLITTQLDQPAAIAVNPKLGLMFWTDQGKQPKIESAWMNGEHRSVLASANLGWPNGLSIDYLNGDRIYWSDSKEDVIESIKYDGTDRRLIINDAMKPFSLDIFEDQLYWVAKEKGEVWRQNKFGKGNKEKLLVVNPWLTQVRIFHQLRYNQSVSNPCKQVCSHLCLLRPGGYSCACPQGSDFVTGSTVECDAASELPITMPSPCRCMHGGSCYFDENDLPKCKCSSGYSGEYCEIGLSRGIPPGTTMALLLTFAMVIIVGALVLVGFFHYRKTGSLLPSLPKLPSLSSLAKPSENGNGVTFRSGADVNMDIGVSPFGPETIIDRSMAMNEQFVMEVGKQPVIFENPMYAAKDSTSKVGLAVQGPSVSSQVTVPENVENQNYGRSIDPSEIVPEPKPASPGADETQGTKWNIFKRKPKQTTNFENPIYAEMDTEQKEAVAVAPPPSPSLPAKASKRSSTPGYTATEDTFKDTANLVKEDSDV

For `CC(=O)N(CC(O)CN(C(C)=O)c1c(I)c(C(=O)NCC(O)CO)c(I)c(C(=O)NCC(O)CO)c1I)c1c(I)c(C(=O)NCC(O)CO)c(I)c(C(=O)NCC(O)CO)c1I` (stereo not shown) [iodixanol], the “iodine contents detected in kidney slices by EPMA, NDRG1-Cre mice versus control mice” value in data set [1] is given as “lower”. Further, the “iodine detected in kidney slices by EPMA, control mice” value (shortened to “iodine detected in kidney slices”) in data set [2] was “High concentrations of iodine were detected”.
Turning to `CC(=O)N(CC(O)CO)c1c(I)c(C(=O)NCC(O)CO)c(I)c(C(=O)NCC(O)CO)c1I` (stereo not shown) [iohexol], the “iodine contents detected in kidney slices by EPMA, NDRG1-Cre mice versus control mice” value in data set [1] is given as “lower”. Besides, the “iodine detected in kidney slices” value in data set [2] is recorded as “High concentrations of iodine were detected”.
As to `O=C(NCC(O)CO)c1c(I)c(C(=O)NCC(O)CO)c(I)c(N(CCO)C(=O)CO)c1I` (stereo not shown) [ioversol], the “iodine contents detected in kidney slices by EPMA, NDRG1-Cre mice versus control mice” value in data set [1] is “lower”.
`CC1(C)C[C@@H]1C(=O)N/C(=C\CCCCSC[C@H](N)C(=O)O)C(=O)O` [cilastatin, (Z)-7-[[(R)-2-amino-2-carboxyethyl]thio]-2-[[[(S)-2,2-dimethylcyclopropyl]carbonyl]amino]-2-heptenoic acid]: the “detection of iodine by EPMA in kidney tissue versus contrast medium+normal saline groups” value in data set [3] (400 mg/kg cilastatin + 100 μL contrast medium, tail vein, FIG. 11 (iomeprol)) is on record as “decrease in the detection of iodine”. In addition, the “I/N X-ray ratio in kidney cortex versus contrast medium+normal saline groups” value in data set [3] (400 mg/kg cilastatin + 100 μL iomeprol, iohexol, ioversol or iodixanol, six individuals per group, FIGS. 12 to 15) is on record as “significantly (t-test) lower”. In addition, the “increase in urinary KIM-1 levels versus contrast medium+normal saline group” value in data set [4] (48 h, FIG. 16) is given as “significantly (t-test) reduced”. Besides, in data set [4] (48 h after medication), the “percentage of individuals with onset of contrast nephropathy” value was determined as 0%. Besides, the “expression of KIM-1 in kidney tissue (staining intensity scores) versus contrast medium+normal saline group” value in data set [4] (outer cortices (S1 and S2 segments), FIG. 18) is reported as “significantly (t-test) lower”. The “change in frequency after injection of the protein of interest onto megalin-immobilized quartz crystals (QCM)” value in data set [5] is given as “reduced”. In addition, in data set [6], the “band corresponding to the protein of interest bound to contrast-bound beads, in the coexistence of cilastatin” value is “decreased”.
As to `COCC(=O)Nc1c(I)c(C(=O)NCC(O)CO)c(I)c(C(=O)N(C)CC(O)CO)c1I` (stereo not shown) [iopromide], the “iodine contents detected in kidney slices by EPMA, NDRG1-Cre mice versus control mice” value in data set [1] is listed as “lower”. Also, the “iodine detected in kidney slices” value in data set [2] is listed as “High concentrations of iodine were detected”.
The like results for `C[C@H](O)C(=O)Nc1c(I)c(C(=O)NC(CO)CO)c(I)c(C(=O)NC(CO)CO)c1I` [iopamidol] were, in that order, “lower” and “High concentrations of iodine were detected”.
